# Data: patent US20050070602A1, “Method of modulating immune response by administration of immuno-activation agent” (priority 2003, published 2005)
# “And” between values parts separate entries of the source, which are not always exact repeats. Equal entries are not always repeated.
# Key:
# [1] = tested on: B cells and NK cells in the peripheral blood; assay: B and NK cells in peripheral blood by direct fluorescent antibody flow cytometry; type: in vivo, mice
# Description: (§1) Five week-old BALB/c (nu/nu) male mice purchased from Charles River Laboratories (Wilmington, Mass.) were housed in a barrier facility with 12-h light/dark cycles; tap water and diets provided ad libitum. They were randomly divided into two groups of nine mice. […] The diets began one week prior to inoculation of PC-3 cells and continued until termination of experiments. The xenografted tumors were established by a single s.c. injection in the flank of 0.8×10^6 PC-3 cells suspended in ice-cold matrigel (sigma). The tumor volumes were measured every 7-8 days and calculated by length×width×height×0.5236. Animal body weights were recorded weekly and at autopsy; food consumption was determined twice per week. Two hours before the mice were euthanized, 5-bromo-2′-deoxyuridine (BrdU) (10 mg/kg body weight) was injected in the peritoneum for in vivo labeling of proliferating cells. At autopsy, xenograft tumors were weighed and frozen in liquid nitrogen or fixed in 10% formalin and embedded in paraffin. The BrdU-labeled cells of paraffin embedded tissues on slides were detected employing a monoclonal anti-BrdU antibody from a BrdU detection kit (Roche Molecular Biochemicals) according to manufacturer's direction. The mean numbers of labeled cells from multiple fields were calculated. The comparisons between control and experimental groups were performed with Student's t test.
# Monoclonal antibodies against mouse B cell antigen CD19 or against Pan NK cell antigen CD49b were used. A mouse isotype control was used as a background.
# The quantities of B cells and NK cells in the peripheral blood of all mice were determined by direct immunofluorescent antibody technique with the flow cytometric method. Monoclonal antibodies against mouse B cell antigen CD19 or against mouse Pan NK cell antigen CD49b were used.
# [2] = tested on: PC-3 cell antigens; assay: Serum antibodies against cultured PC-3 cells, indirect immunofluorescence with flow cytometry; type: in vivo, mice
# Description: The reaction of serum antibodies from mice on the experimental or control diet with cultured PC-3 cells was analyzed with an indirect immunofluorescent antibody technique. A fluoresecin-labeled goat IgG-(Fab′)2 antibody against mouse Ig was used as the second antibody. PC-3 cells stained with a nonspecific mouse IgG as the first antibody were used as a background. The proportion of the positively stained cells and the mean fluorescence intensity were analyzed with the intensity channel on a flow cytometer.
# Mouse sera were incubated with cultured PC-3 cells to detect the presence and reactivity of antibodies against PC-3 antigens using an indirect immunofluorescent antibody technique. The proportion of the positively stained cells and the mean fluorescence intensity were analyzed by a flow cytometric method. […] For example, at the titer of 20, the antisera from mice on experimental diet detected approximately 24-38% cells while approximately 7-16% cells detected with the sera from mice on the control diet.
# [3] = tested on: xenografted PC-3 tumors; assay: Histology and immunohistochemical staining of xenografted tumor tissue for immune cells and bound mouse Ig; type: in vivo, mice
# Description: as §1
# The changes of B and NK cells were further examined in the-frozen and paraffin embedded xenografted tumor tissues by for immunohistochemical staining. Mouse B cells were identified with a primary monoclonal rat anti-B220 antibody, and NK cells of immunodeficient mice detected with a rat anti-mouse CD90.2 (18) primary antibody (BD PharMingen). A biotin-conjugated goat anti-rat Ig was used as a secondary antibody, with chromogen color development using an ImmunoCruz Staining System (Santa Cruz Biotechnology). A rat IgG2aK was used as an isotype control. The binding of mouse Ig to xenografted tumor cells was determined by a direct antibody staining method using a biotinylated goat anti-mouse Ig (BD PhaMingen), or an isotype Ig control.
# [4] = tested on: xenografted PC-3 tumors; assay: Apoptotic cells in xenografted tumors by TUNEL; type: in vivo, mice; details: nine weeks PEITC-NAC diet
# Description: The apoptotic cells of xenografted tumors were determined with paraffin embedded tissue slides by the characteristic nucleus morphology, and by the presence of DNA strand breaks using the terminal deoxynucleotidyl tranferase-mediated biotinylated UTP nick end labeling (TUNEL). An in situ detection kit from Roche Molecular Biochemicals, Indianapolis, Ind. was employed according to manufacturer's direction (17). Multiple fields, but not necrotic tissues, were determined for apoptotic cells.
# [5] = tested on: PARP (poly (ADP-ribose) polymerase); assay: Western blot of PARP cleavage in xenografted tumors; type: in vivo, human; details: pooled experimental tumors vs control
# Description: (§2) The protein levels of xenografts were determined by Western blot analyses using standard procedures (19). Total proteins were prepared from each group of pooled individual xenografts of equal weight. The tissues were homogenized in the presence of a lysis buffer with protease inhibitors (17) and lysates collected after centrifugation at 4° C. Polyclonal antibodies against human p21^WAF-1/Cip-1, p27^Kip1, cyclin E, and an anti-cyclin D1 cross reactive with cyclins D2 and D3, an anti-Rb reactive with both phosphorylated and non-phosphorylated proteins, and an antibody against intact poly (ADP-ribose) polymerase (PARP) and the 89 kDa fragment were purchased from Santa Cruz Biotechnology. Preferably the endogenous cyclin-dependent kinase inhibitors are p151NK4B, p161NK4A, p181NK4C, p191NK4D, p21WAF-1/Cip-1, p27Kip1 and/or p57 that inhibit cyclin-dependent kinases.
# [6] = tested on: xenografted PC-3 tumors; assay: Proliferating (BrdU-labeled) and mitotic cells in xenografted tumors; type: in vivo, mice
# Description: as §1
# [7] = tested on: cyclin D1; assay: Western blot of xenografted tumors: cyclin D1; type: in vivo, human; details: pooled experimental tumors vs controls
# Description: as §2
# [8] = tested on: Rb; assay: Western blot of xenografted tumors: Rb phosphorylation; type: in vivo, human; details: experimental tumors vs controls
# Description: as §2
# [9] = tested on: human prostate cancer PC-3 cells; assay: Xenograft tumor assay, PC-3 cells in BALB/c (nu/nu) mice; type: in vivo
# Description: as §1
# [10] = Description: as §1
# [11] = tested on: PC-3 cells; assay: Cell cycle phases of cultured PC-3 cells by flow cytometry; type: cell-based, human; details: exposure for 24 hours in cultures
# Description: The product was crystallized from hexane, and purity established by HPLC, NMR and MS; purity was greater than 98%. A human prostate cancer cell line, androgen-independent PC-3 was used as antigen in this invention. PC-3 cells were seeded at 1.5×10^5 cells/ml in RPMI-1640 containing 15% heat inactivated fetal calf serum with 1% penicillin (10,000 units/ml) and streptomycin (10,000 μg/ml) (15). Cell cycle phase determination was performed using a BD FACScan cytometer according to published procedures (16, 17). The cells were fixed with 80% ethanol at 4° C. and incubated on ice before the DNA was stained with propidium iodide (50 μg/ml).
# [12] = tested on: prostate cancer cells; details: earlier report (ref. 12); cited from earlier work
structure (smiles),measurement,setting,value
"CC(=O)N[C@@H](CSC(=S)NCCc1ccccc1)C(=O)O [PEITC-NAC, N-acetylcysteine conjugate of phenethyl isothiocyanate]","Mean of NK Cells (%), average of experimental mice","[1]; average of 3 experimental mice, control average 24.4, PEITC-NAC diet 8 μmol/g",30.5%
same,"Mean of B Cells (%), average of experimental mice","[1]; average of 3 experimental mice, control average 30.5, PEITC-NAC diet 8 μmol/g",42.0%
same,Mean of B Cells (%),"[1]; individual experimental mice, peripheral blood, CD19, % of total mononuclear cells, PEITC-NAC diet 8 μmol/g of AIN-76A, 30 days, PC-3 xenografted nude mice",45.8% and 42.1% and 38.3%
same,Mean of NK Cells (%),"[1]; individual experimental mice, peripheral blood, CD49b, % of total mononuclear cells, PEITC-NAC diet 8 μmol/g of AIN-76A, 30 days, PC-3 xenografted nude mice",27.6% and 38.0% and 26.0%
same,antisera titer against PC-3 cell antigens,"[2]; 6 weeks after injection of PC-3 cells, vs basal control diet",higher titer
same,mean fluorescence on stained PC-3 cells,[2]; antisera from experimental diet mice vs control mice sera,significantly more intense
same,PC-3 cells detected by antisera,"[2]; serum titer of 20, mice on experimental diet, control diet 7-16%",24-38%
same,lymphocytes around tumor nodules,"[3]; H & E sections, after nine weeks of PEITC-NAC diet, not in control mice",surrounded by aggregates of small lymphocytes
same,NK cell receptor NKG2A/C/E among infiltrating cells,"[3]; immunohistochemical staining, PEITC-NAC treated mice",demonstrated among cells infiltrating around the tumor nodules
same,B220 staining of lymphocytes around tumor nodules,"[3]; immunohistochemical staining, experimental tumors",great majority of them were B cells bearing marker B220
same,CD90.2 staining of lymphocytes around tumor nodules,"[3]; immunohistochemical staining, marker for T and NK cells",Small quantity of lymphocytes stained positive for CD90.2
same,mouse immunoglobulins bound to xenografted tumor cells,"[3]; immunoperoxidase staining, experimental but not control tumors",bound mouse immunoglobulins
same,elevation of apoptotic rate vs control tumors,[4],approximately two
same,average apoptotic rate of tumors,"[4]; control 14.4%, P=0.02",29.29%
same,cleaved PARP fragments incl. 89 kDa fragment,[5],Significant increase of the cleaved fragments
same,"proliferating cells, less than in control mice","[6]; BrdU labeling, tumors at autopsy",approximately 75%
same,mitotic figures,"[6]; tumors from PEITC-NAC fed mice, control greater than five per field",three
same,reduced expression of cyclin D1,[7],32%
same,Rb phosphorylation,[8],significant reduction of Rb phosphorylation
same,tumor incidence,"[9]; PEITC-NAC diet 8 μmol/g, control 100%",88%
same,time for tumors to be palpable,"[9]; after inoculation of PC-3 cells, PEITC-NAC diet 8 μmol/g, control 7-10 days",7 to 22 days
same,tumor volumes vs control tumors,"[9]; during study period, P<0.05",smaller
same,mice with tumor inhibition,[9]; mice fed with PEITC-NAC diet,100%
same,"daily food consumption, less than control mice",[10]; PEITC-NAC diet,approximately 6.5%
same,average weights of kidneys and spleens vs controls,"[10]; at autopsy, P>0.13",the difference was not significant
same,average body weight at termination,"[10]; experimental mice, control mice 21.89 g",20.93 g
same,behavior of animals,"[10]; throughout the study period, PEITC-NAC diet",no signs of unusual behavior
same,cell cycle phases of PC-3 cells,[11],concentration-related reduction of S- and G2M-phases
same,growth of prostate cancer cells in cultures,[12],significantly inhibited
